According to publication PMC12236907, “A Natural Depsipeptide Antibiotic that Targets the E site of the Bacterial Ribosome” (Research Square, 2025):
Entries after “also recorded” stand apart in the source; their conditions may differ. Where a SMILES comes first, the peptide text is derived from it. Bridges are numbered along the chain shown (N, C = ends). [ ]: non-standard residue; d: D form. dOrn = NCCC[C@@H](N)C(=O)O

Columns and labels:
[1] = test system: ribosome; experiment: Ribosome profiling (Ribo-seq)
[2] = test system: Klebsiella pneumoniae; experiment: Antimicrobial activity, Klebsiella pneumoniae; type: cell-based
[3] = test system: 70S ribosome (50S subunit); experiment: Cryo-EM of MKM-stalled ribosome complexes; type: binding, E. coli; conditions: ermBL MKM-SRC, 50 μM MKM
Experimental: MKM-ribosome complexes were generated by in vitro translation reactions in the PURExpress In vitro Protein Synthesis Kit (NEB) as described by the manufacturer. Complex formation reactions were carried out on ermBL toeprint mRNA template (Supplementary Table 7) in a 75 μl of reaction in presence of 50 μM MKM. The reaction was incubated for 15 min at 37 °C. The reaction volume was then split: 69 μl were used for complex generation and 6 μl were further analyzed by toeprinting. Ribosome complexes were isolated by centrifugation in 900 μl of sucrose gradient buffer (containing 40% sucrose, 50 mM HEPES-KOH, pH 7.4, 100 mM KOAc, 25 mM Mg(OAc)2 and 6 mM 2-mercaptoethanol) for 3 h at 4 °C with 80,000 g in a Optima Max-XP Tabletop Ultracentrifuge with a TLA 120.2 rotor. […]
Cryo-EM grids were prepared by applying 3.5 μl of MKM-70S complexes onto freshly glow-discharged Quantifoil R3.5/1 grids (copper, 300 mesh, with an additional 3 nm carbon layer; Product: C3-C19nCu30–01). […]
Movies were captured at a nominal magnification of 105,000×, corresponding to a calibrated pixel size of 0.832 Å (0.416 Å in super-resolution mode, binned 2× via EPU). […] Each exposure lasted 1.95 seconds in nanoprobe mode, during which 35 frames were recorded at a dose rate of ~1.14 electrons per frame per Å^2, resulting in a total accumulated dose of approximately 40 electrons per Å^2 (~15 e^−/px/s over vacuum). […]

[4] = test system: E. coli BW25113; experiment: Time-dependent killing assay, E. coli; type: cell-based; conditions: E. coli BW25113, MHB, 5×MIC (160 μg/ml), 37°C, 0-24 h; mean of three biological replicates
Experimental: E. coli BW25113 and Klebsiella pneumoniae C1559 were grown overnight in 5 ml of cation-adjusted Mueller-Hinton Broth. The cultures were then inoculated into fresh medium to achieve an OD600 of 0.1, corresponding to a concentration of 10^8 CFU/ml. […] Samples were taken at 0 h, 3 h, 6 h, and 24 h post-incubation, plated on MHA plates, and incubated for 20–24 hours at 37°C. Colony counts were used to determine the log reduction in CFU/ml, comparing treated strains to untreated control samples.

[5] = target: rabbit reticulocyte lysate; experiment: Inhibition of protein synthesis in rabbit reticulocyte lysate programmed with luciferase mRNA; type: biochemical
[6] = test system: E. coli strain SQ110ΔtolC::pZsbmA; experiment: Minimum inhibitory concentration, hypersusceptible E. coli SQ110ΔtolC::pZsbmA and its 23S rRNA mutants; conditions: 11 mutants: deletion of one adenine in A2432-A2435 (10) or of C249 (1) in 23S rRNA

For `C[C@@H](O)[C@@H]1NC(=O)[C@@H](CCCNC(=N)N)NC(=O)[C@@H](CCCNC(=N)N)NC(=O)[C@@H](CC(N)=O)NC(=O)[C@@H](NC(=O)[C@@H](Cc2ccccc2)NC(=O)[C@@H](CCCN)NC(=O)[C@H](N)CCCNC(=N)N)[C@@H](C)OC(=O)[C@H](Cc2c[nH]cn2)NC1=O` [MKM, manikomycin A] (H-[dR][dOrn][dF]T[dN][dR][dR]TH; ester 4-C), the metagene ribosome occupancy ([1]; E. coli BL21ΔtolC, 50 μg/ml (25×MIC), 2 min) was “increased ribosome occupancy at the early mRNA codons”, the “codon depletion at MKM-induced arrest sites” value ([1]; E. coli BL21ΔtolC, 50 μg/ml (25×MIC), 2 min, pLogo) was “exclusion of Thr at the sites of MKM-induced arrest” and the “codon enrichment at MKM-induced stalling sites” value ([1]; E. coli BL21ΔtolC, 50 μg/ml (25×MIC), 2 min, pLogo, sites with ≥5-fold higher occupancy) was “enrichment of Pro codons in the P and A sites”. The “context specificity of action (summary)” value ([1]; ribosome profiling and toeprinting, Pro, Leu, Thr codons) was “more efficiently inhibiting ribosomes translating Pro and Leu codons and exhibiting less effect on those translating Thr codons”, the antimicrobial activity [2] was “selective antimicrobial activity” and the second binding site [3] was “at the back of the 50S subunit”. For the same compound, the primary binding site ([3]; 2.4 Å focused refinement on 50S) was “located within the E site of the 50S subunit”, the time-kill effect [4] was “bactericidal” and the “IC50 ratio rabbit reticulocyte lysate / bacterial system” value ([5]; IC50 9.2 μM vs 0.6 μM in E. coli system) was “approximately 15 fold”. For the same compound, the “inhibition of eukaryotic / mammalian translation (in words)” value ([5]; rabbit reticulocyte lysate (Fig. 2d)) was “poor inhibition; also recorded: very weak inhibitor”, the IC50 ([5]; rabbit reticulocyte lysate, luciferase mRNA) was 9.2 µM and the “IC50 ratio to cycloheximide” value ([5]; rabbit reticulocyte lysate, higher than cycloheximide) was 35 fold. The “increase in MKM MIC” value [6] was over 16 fold.
